Source: PMC3992131 (Nature chemical biology, 2014)
Where two headings read alike, the source gives them in different places. Where a SMILES comes first, the peptide text is derived from it. Bridges are numbered along the chain shown (N, C = ends). Where no end group is shown, it is not given here.

Key:
[1] = test system: FhuA; details: cited from earlier work
[2] = test system: human erythrocytes; details: cited from earlier work
[3] = biological target: T1, E. coli FhuA (Escherichia coli, UniProt P06971); assay: biochemical; type: binding, Escherichia coli MG1655
T1 sequence (P06971 34-747): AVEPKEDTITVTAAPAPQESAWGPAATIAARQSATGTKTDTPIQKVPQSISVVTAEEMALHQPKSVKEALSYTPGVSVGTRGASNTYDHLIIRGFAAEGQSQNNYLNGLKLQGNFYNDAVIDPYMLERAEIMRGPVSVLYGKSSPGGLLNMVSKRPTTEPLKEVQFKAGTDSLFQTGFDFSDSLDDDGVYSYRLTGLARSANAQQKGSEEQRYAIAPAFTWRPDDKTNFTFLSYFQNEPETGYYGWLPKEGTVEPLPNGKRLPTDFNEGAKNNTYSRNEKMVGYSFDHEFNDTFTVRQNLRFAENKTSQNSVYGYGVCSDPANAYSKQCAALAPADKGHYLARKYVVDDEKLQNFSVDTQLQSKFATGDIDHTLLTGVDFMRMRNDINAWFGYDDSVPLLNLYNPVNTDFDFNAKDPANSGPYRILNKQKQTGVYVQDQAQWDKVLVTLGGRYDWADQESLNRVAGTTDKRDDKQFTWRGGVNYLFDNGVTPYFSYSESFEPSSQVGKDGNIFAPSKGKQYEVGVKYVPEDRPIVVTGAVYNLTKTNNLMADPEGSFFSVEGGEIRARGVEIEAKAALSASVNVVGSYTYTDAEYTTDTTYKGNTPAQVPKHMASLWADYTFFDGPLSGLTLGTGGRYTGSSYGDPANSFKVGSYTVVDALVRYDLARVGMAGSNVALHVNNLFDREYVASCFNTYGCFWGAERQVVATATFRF

[4] = test system: Salmonella; details: mouse model of infection by Salmonella; cited from earlier work
[5] = test system: E. coli RNA polymerase; details: in vitro; cited from earlier work
[6] = test system: E. coli W3110 wildtype and tonB− strains; assay: tonB antibacterial assay; type: cell-based; details: spot-on-lawn, 10 μL MccJ25 in MeOH (1-100 μg/mL), LB agar, 37°C overnight
[7] = test system: Escherichia and Salmonella species; details: cited from earlier work
[8] = complex fluid matrices; cited from earlier work
[9] = biological target: FhuA (Escherichia coli) (UniProt P06971); assay: ITC; details: cited from earlier work
[10] = biological target: FhuA from E. coli MG1655 with an internal His-tag (E. coli) (UniProt P06971); assay: native MS

CO[C@H]1/C=C/O[C@@]2(C)Oc3c(C)c(O)c4c(c3C2=O)C(=O)C(N2CCOCC2)=C(NC(=O)/C(C)=C\C=C\[C@H](C)[C@H](O)[C@@H](C)[C@@H](O)[C@@H](C)[C@H](OC(=O)CC(=O)OCC2CCCN(C)C2)[C@@H]1C)C4=O (stereo partly shown) [CGP 4832]
transport by FhuA [1]: can transport

CC[C@H](C)[C@H](NC(=O)CNC(=O)[C@@H](NC(=O)[C@H](Cc1ccccc1)NC(=O)[C@H](Cc1ccc(O)cc1)NC(=O)[C@@H]1CCC(=O)NCC(=O)NCC(=O)N[C@@H](C)C(=O)NCC(=O)N[C@@H](Cc2cnc[nH]2)C(=O)N[C@@H](C(C)C)C(=O)N2CCC[C@H]2C(=O)N1)C(C)C)C(=O)NCC(=O)N[C@H](C(=O)N1CCC[C@H]1C(=O)N[C@H](C(=O)N[C@@H](CO)C(=O)N[C@@H](Cc1ccccc1)C(=O)N[C@@H](Cc1ccc(O)cc1)C(=O)NCC(=O)O)[C@@H](C)CC)[C@@H](C)O [MccJ25, microcin J25] (GGAGHVPEYFVGIGTPISFYG-OH; lactam N-8)
haemolytic activity [2]: without haemolytic activity on human erythrocytes
Kd [3]: 980 ± 20 nM

CC[C@H](C)[C@H](NC(=O)CNC(=O)[C@@H](NC(=O)[C@H](Cc1ccccc1)NC(=O)[C@H](Cc1ccc(O)cc1)NC(=O)[C@@H]1CCC(=O)NCC(=O)NCC(=O)N[C@@H](C)C(=O)NCC(=O)N[C@@H](Cc2c[nH]cn2)C(=O)N[C@@H](C(C)C)C(=O)N2CCC[C@H]2C(=O)N1)C(C)C)C(=O)NCC(=O)N[C@H](C(=O)N1CCC[C@H]1C(=O)N[C@H](C(=O)N[C@@H](CO)C(=O)N[C@@H](Cc1ccccc1)C(=O)N[C@@H](Cc1ccc(O)cc1)C(=O)NCC(=O)O)[C@@H](C)CC)[C@@H](C)O [MccJ25, microcin J25] (GGAGHVPEYFVGIGTPISFYG-OH; lactam N-8; C-terminus assumed)
antibacterial activity in vivo [4]: in vivo in a mouse model of infection by Salmonella
inhibition of E. coli RNA polymerase [5]: inhibit E. coli RNA polymerase with equal efficiency in vitro
internalization dependence on TonB [6]: dependent on the FhuA-TonB system
antibacterial activity/spectrum [7]: potent antibacterial activity exclusively against Escherichia and some Salmonella species
antibacterial activity/spectrum ([7]; through inhibition of RNA polymerase): potent, narrow spectrum antibacterial activity against Escherichia and Salmonella species
antibacterial activity ex vivo [8]: has been demonstrated both ex vivo, in complex fluid matrices

CO[C@H]1/C=C/O[C@@]2(C)Oc3c(C)c(O)c4c(O)c(cc(O)c4c3C2=O)NC(=O)/C(C)=C\C=C\[C@H](C)[C@H](O)[C@@H](C)[C@@H](O)[C@@H](C)[C@H](OC(C)=O)[C@@H]1C [rifamycin]
transport by FhuA [1]: cannot efficiently transport

MccJ25 (from UniProt Q9X2V7)
Kd [9]: 1200 nM

MccJ25[His5Lys] (peptide)
Kd [10]: 16900 nM

t-MccJ25: MccJ25 hydrolyzed between Phe10 and Val11, obtained by incubation of MccJ25 in the presence of thermolysin (chain 1 GGAGHVPEYF; chain 2 VGIGTPISFYG; also: lactam at chain A 8 to a chain's N-terminus)
binding to FhuA (result in words) [3]: absence of binding to FhuA
